Activity calls are given as the source filed them.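 The calls were made as follows: active = at least one rat sex group has a carcinogenic potency value and tumor site recorded; inconclusive = only rat studies were judged inadequate by the national testing program; inactive = no potency or tumor site, with negative rat experiments.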
Tested on: rat chronic carcinogenicity bioassay, TD50
Test: DSSTox (CPDBAS) Carcinogenic Potency Database Summary Rat Bioassay Results
Settings: for Potency: stronger effect = lower value; for outcome: TD50_Rat_Note: no positive results
Summary of the method: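 Chronic long-term rat cancer bioassays from literature and NCI/NTP, taking the most positive result per sex. TD50 in mmol converted to a 1–100 Activity Score from log10(1/TD50). Mixtures lacking TD50 scored 50.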

[1] = TargetSites_Rat_Female: no positive results
[2] = TD50_Rat_Note: TD50 is harmonic mean of more than one positive test
[3] = TargetSites_Rat_Female: mammary gland

Compound: COc1ccc(C)cc1N
- Potency (TD50_Rat_Note: TD50 is harmonic mean of more than one positive test, TargetSites_Rat_Female: nasal cavity, urinary bladder): 98 mg/kg/day

Compound: CCCCCC(N)=O
- outcome [1]: inactive; no positive results

Compound: CC(C)OC(=O)Nc1cccc(Cl)c1
- outcome [1]: inactive; no positive results

Compound: CCCCCN(N=O)C(N)=O
- Potency (TD50_Rat_Note: TD50 is harmonic mean of more than one positive test, TargetSites_Rat_Female: hematopoietic system, lung, mammary gland, stomach, uterus): 0.555 mg/kg/day

Compound: Nc1nc(N)nc(-c2cc(Cl)ccc2Cl)n1
- outcome: inactive; no positive results

Compound: COc1ccc(N)cc1N
- Potency (TD50_Rat_Note: TD50 is harmonic mean of more than one positive test, TargetSites_Rat_Female: clitoral gland, ear Zymbals gland, mammary gland, thyroid gland): 183 mg/kg/day

Compound: CN=[N+](C)[O-]
- Potency [2]: 0.0466 mg/kg/day

Compound: CCN(N=O)C(N)=O
- Potency (TD50_Rat_Note: TD50 is harmonic mean of more than one positive test, TargetSites_Rat_Female: nervous system, small intestine): 0.948 mg/kg/day

Compound: O=[N+]([O-])c1cccc2cccnc12
- Potency (TD50_Rat_Note: TD50 is harmonic mean of more than one positive test, TargetSites_Rat_Female: stomach): 9.82 mg/kg/day

Compound: O=C([O-])c1cc(N=Nc2ccc(-c3ccc(N=Nc4c(O)ccc(N=Nc5cc(S(=O)(=O)[O-])ccc5[O-])c4[O-])cc3)cc2)ccc1O.[Cu+2].[Na+].[Na+]
- Potency (TargetSites_Rat_Female: liver): 2.07 mg/kg/day

Compound: C1CCOC1
- Potency [1]: 407 mg/kg/day

Compound: CCCCCCCCCC[N+](C)(C)[O-]
- outcome [1]: inactive; no positive results

Compound: CC(C)(C)O
- Potency [1]: 64.6 mg/kg/day

Compound: CCOC(=O)[C@]1(c2ccccc2)CCC=C[C@H]1N(C)C
- outcome [1]: inactive; no positive results

Compound: COc1cccc2c1cc([N+](=O)[O-])c1c(C(=O)O)cc3c(c12)OCO3
- Potency (TD50_Rat_Note: TD50 is harmonic mean of more than one positive test, TD50_Rat_mmol was not calculated for this mixture, but Activiity S, TargetSites_Rat_Female: stomach): 0.0141 mg/kg/day

Compound: O=S(=O)(O)O
- Potency (TD50_Rat_Note: TD50 is harmonic mean of more than one positive test, TargetSites_Rat_Female: lung): 40.8 mg/kg/day

Compound: C1COCCO1
- Potency (TD50_Rat_Note: TD50 is harmonic mean of more than one positive test, greater than ten-fold variation among TD50 values for positive res, TargetSites_Rat_Female: liver, mammary gland, nasal cavity): 267 mg/kg/day

Compound: C[C@]12CC[C@@H]3c4ccc(OC(=O)Cc5ccc(N(CCCl)CCCl)cc5)cc4CC[C@H]3[C@@H]1CC[C@@H]2OC(=O)Cc1ccc(N(CCCl)CCCl)cc1
- outcome [1]: inactive; no positive results

Compound: OCN(CO)c1nc(N(CO)CO)nc(N(CO)CO)n1
- Potency (TargetSites_Rat_Female: kidney, mammary gland): 10.2 mg/kg/day

Compound: Cc1c(N(C)CS(=O)(=O)O)c(=O)n(-c2ccccc2)n1C
- outcome [1]: inactive; no positive results

Compound: COc1ccc(C(Cl)=C(c2ccc(OC)cc2)c2ccc(OC)cc2)cc1
- outcome [1]: inactive; no positive results

Compound: Cc1ccc(OP(=O)(Oc2ccc(C)cc2)Oc2ccc(C)cc2)cc1
- outcome [1]: inactive; no positive results

Compound: CCOC(=O)C(O)(c1ccc(Cl)cc1)c1ccc(Cl)cc1
- outcome [1]: inactive; no positive results

Compound: CN(N=O)C(=O)c1ccccc1
- Potency (TD50_Rat_Note: TD50 is harmonic mean of more than one positive test, TargetSites_Rat_Female: all tumor bearing animals): 3.23 mg/kg/day

Compound: O=C1C2CC=CCC2C(=O)N1SC(Cl)(Cl)Cl (stereo not drawn)
- Potency (TD50_Rat_Note: TD50 is harmonic mean of more than one positive test, TargetSites_Rat_Female: uterus): 2080 mg/kg/day

Compound: O=[N+]([O-])c1ccc(-c2cscn2)o1
- Potency (TargetSites_Rat_Female: mammary gland, stomach): 7.68 mg/kg/day

Compound: CCOC(=O)/C=C\C(=O)OCC
- outcome: inactive; no positive results

Compound: C=CC(O)c1ccc2c(c1)OCO2 (stereo not drawn)
- Potency [2]: 18.4 mg/kg/day

Compound: Cn1c(N)nc2c3cccnc3ccc21
- Potency (TD50_Rat_Note: TD50 is harmonic mean of more than one positive test, greater than ten-fold variation among TD50 values for positive res, TargetSites_Rat_Female: clitoral gland, ear Zymbals gland, large intestine, liver, mammary gland, oral cavity, preputial gland, skin, small inte): 0.812 mg/kg/day
- Potency (TargetSites_Rat_Female: ear Zymbals gland, liver, mammary gland, pancreas, urinary bladder, vascular system): 3.29 mg/kg/day

Compound: C1CNCCN1
- outcome [1]: inactive; no positive results

Compound: CN(N=O)C(=O)N[C@@H]1[C@@H](O)[C@H](O)[C@@H](CO)O[C@@H]1O
- Potency (TD50_Rat_Note: positive test results only by intraperitoneal or intravenous injection, TD50 is harmonic mean of more than one positive, TargetSites_Rat_Female: kidney): 0.963 mg/kg/day

Compound: C=C/C1=C/[C@H](C)[C@](C)(OC(C)=O)C(=O)OCC2=CC[N+]3(C)CC[C@@H](OC1=O)C23[O-] (stereo partly drawn)
- Potency (TargetSites_Rat_BothSexes: liver, vascular system): 0.5 mg/kg/day

Compound: COC(=O)c1ccc(C(=O)OC)cc1
- outcome [1]: inactive; no positive results

Compound: CCCCCCCC/C=C\CCCCCCCC(=O)O
- outcome [1]: inactive; no positive results

Compound: COc1ccc(O)c(C(C)(C)C)c1
- Potency (TD50_Rat_Note: TD50 is harmonic mean of more than one positive test, harmonic mean of TD50 includes a value for upper 99% confidence li, TargetSites_Rat_Female: stomach): 405 mg/kg/day

Compound: Cc1cccc(Nc2cc(Cl)nc(SCC(=O)NCCO)n2)c1C
- Potency: 6.49 mg/kg/day

Compound: CCOCCc1c(-c2ccccc2)nc(N)n2ncnc12
- Potency (TD50_Rat_Note: TD50 is harmonic mean of more than one positive test, TargetSites_Rat_Female: liver, mammary gland): 548 mg/kg/day

Compound: O=P(OCCCl)(OCCCl)OCCCl
- Potency (TD50_Rat_Note: TD50 is harmonic mean of more than one positive test, TargetSites_Rat_Female: kidney): 86.7 mg/kg/day

Compound: O=C(O)c1[nH]n(-c2ccc(S(=O)(=O)O)cc2)c(=O)c1N=Nc1ccc(S(=O)(=O)O)cc1
- outcome [1]: inactive; no positive results

Compound: C/C=C(\C)C(=O)O[C@@H]1CCN2CC=C(COC(=O)C(O)(C(C)C)C(C)O)[C@H]12 (stereo partly drawn)
- Potency (TD50_Rat_Note: positive test results only by intraperitoneal or intravenous injection): 1.91 mg/kg/day

Compound: Cc1[nH]cnc1CSCCN=C(NC#N)N(C)N=O
- outcome [1]: inactive; no positive results

Compound: Nc1ccc([N+](=O)[O-])cc1O
- Potency [1]: 111 mg/kg/day

Compound: CNc1ccc(N(CCO)CCO)cc1[N+](=O)[O-]
- Potency (TargetSites_Rat_Female: lung): 702 mg/kg/day

Compound: COc1cc(/C=C/C(=O)OCCc2ccccc2)ccc1O
- outcome: inactive; no positive results

Compound: [O]N=O
- outcome: inactive; no positive results

Compound: CCC[CH2][Sn]([CH2]CCC)([CH2]CCC)[O][Sn]([CH2]CCC)([CH2]CCC)[CH2]CCC
- outcome [1]: inactive; no positive results

Compound: NCCS(=O)(=O)O
- outcome [1]: inactive; no positive results

Compound: CCCN(CCC)c1c([N+](=O)[O-])cc(C(F)(F)F)cc1[N+](=O)[O-]
- outcome [1]: inactive; no positive results

Compound: O=NN1CCC(O)C1 (stereo not drawn)
- Potency (TargetSites_Rat_BothSexes: all tumor bearing animals): 7.65 mg/kg/day

Compound: CCCCN(N=O)C(=N)N[N+](=O)[O-]
- outcome: inactive; no positive results

Compound: COc1ccc(OC)c(/C=C/c2ccc(N)cc2)c1
- Potency: 0.721 mg/kg/day

Compound: C[C@]12C/C(=C/O)C(=O)C[C@@H]1CC[C@@H]1[C@@H]2CC[C@@]2(C)[C@H]1CC[C@]2(C)O
- Potency (TargetSites_Rat_Female: liver, lung, skin): 66.9 mg/kg/day

Compound: C=O
- Potency (TD50_Rat_Note: TD50 is harmonic mean of more than one positive test, greater than ten-fold variation among TD50 values for positive res, TargetSites_Rat_Female: hematopoietic system, nasal cavity): 1.35 mg/kg/day

Compound: COP(=O)(OC)O/C(=C\Cl)c1cc(Cl)c(Cl)cc1Cl
- outcome (TargetSites_Rat_Female: no positive results- CPDB evaluation based on NCI Technical Report): no positive results

Compound: O=C1CCC(=O)O1
- outcome [1]: inactive; no positive results

Compound: CC1(C)O[C@@H]2C[C@H]3[C@@H]4CCC5=CC(=O)C=C[C@]5(C)[C@@]4(F)[C@@H](O)C[C@]3(C)[C@]2(C(=O)CO)O1
- Potency: 0.053 mg/kg/day

Compound: Clc1c(Cl)c(Cl)c(Cl)c(Cl)c1Cl
- Potency (TD50_Rat_Note: TD50 is harmonic mean of more than one positive test, harmonic mean of TD50 includes a value for upper 99% confidence li, TargetSites_Rat_Female: liver): 3.86 mg/kg/day

Compound: CCNC(=O)Nc1ncc([N+](=O)[O-])s1
- Potency [3]: 131 mg/kg/day

Compound: CC(C)(c1ccc(O)cc1)c1ccc(O)cc1
- outcome [1]: inactive; no positive results

Compound: CCCCN(CCCC)N=O
- Potency: 0.691 mg/kg/day

Compound: CC1CN(/N=C/c2ccc([N+](=O)[O-])o2)C(=O)N1 (stereo not drawn)
- Potency [3]: 5.34 mg/kg/day

Compound: CCc1cc(C(N)=S)ccn1
- outcome [1]: inactive; no positive results

Compound: CC(=O)Nc1ccc2c(c1)Cc1ccccc1-2
- Potency (TD50_Rat_Note: TD50 is harmonic mean of more than one positive test, TargetSites_Rat_Female: liver, mammary gland, skin): 1.22 mg/kg/day

Compound: CCOC(=O)C(C)(C)Oc1ccc(Cl)cc1
- Potency: 169 mg/kg/day

Compound: COC(=O)C1=CCCN(N=O)C1
- outcome: inactive; no positive results

Compound: COc1c(Cl)c(Cl)c(Cl)c(Cl)c1Cl
- Potency [1]: 24.8 mg/kg/day

Compound: CCN(CC)CCOc1ccc(C(O)(Cc2ccc(OC)cc2)c2ccccc2)cc1 (stereo not drawn)
- outcome [1]: inactive

Compound: CCCCCCCCCCCCN(C)N=O
- Potency (TD50_Rat_Note: TD50 is harmonic mean of more than one positive test, harmonic mean of TD50 includes a value for upper 99% confidence li, TargetSites_Rat_Female: urinary bladder): 0.537 mg/kg/day

Compound: Brc1cc(-c2ccc(Br)c(Br)c2Br)cc(Br)c1Br
- outcome [1]: inactive

Compound: O=NN(c1ccccc1)c1ccccc1
- Potency (TD50_Rat_Note: TD50 is harmonic mean of more than one positive test, TargetSites_Rat_Female: urinary bladder): 167 mg/kg/day

Compound: C=CCN(N=O)C(N)=O
- Potency (TD50_Rat_Note: TD50 is harmonic mean of more than one positive test, TargetSites_Rat_Female: mammary gland, stomach, uterus): 0.341 mg/kg/day

Compound: C=CCc1ccc(O)c(OC)c1
- outcome [1]: inactive; no positive results

Compound: O=NN1CCCCCCC1
- Potency [2]: 0.0378 mg/kg/day

Compound: CC(=O)Nc1ccc(CC(=O)O)cc1
- outcome [1]: inactive; no positive results

Compound: COc1c(Cl)c(Cl)c([N+](=O)[O-])c(Cl)c1Cl
- outcome [1]: inactive; no positive results

Compound: NC(N)=S
- Potency (TD50_Rat_Note: TD50 is harmonic mean of more than one positive test, TargetSites_Rat_Female: no positive results): 98.5 mg/kg/day

Compound: c1ccncc1
- Potency [1]: 67.3 mg/kg/day

Compound: CCN(Cc1cccc(S(=O)(=O)O)c1)c1ccc(C(=C2C=CC(=[N+](CC)Cc3cccc(S(=O)(=O)O)c3)C=C2)c2ccc(O)cc2S(=O)(=O)[O-])cc1
- outcome [1]: inactive; no positive results

Compound: CC(Cl)Cl
- outcome [1]: inactive; no positive results

Compound: Nc1ccc(Cl)cc1N
- Potency (TD50_Rat_Note: TD50 is harmonic mean of more than one positive test, TargetSites_Rat_Female: stomach, urinary bladder): 214 mg/kg/day

Compound: C[C@@H]1CCCCN1N=O
- Potency (TargetSites_Rat_BothSexes: nervous system): 20.4 mg/kg/day

Compound: NC(=O)c1cnccn1
- outcome [1]: inactive; no positive results

Reference: PubChem BioAssay AID1208 (EPA DSSTox, 2008)
